One data set concerns Sprague Dawley rats. The data set can be described thus: myocardial ischemia/reperfusion injury. As to conditions: for circulating levels of cardiac troponin I (cTnI) / infarct size as a percentage of the area at risk: acute p.o. 2 h prior to ischemia, GSK2181236A 0.1 and 1.0 mg/kg, BAY 60-4552 0.3 and 3 mg/kg, 24 h reperfusion. Type of data set: in vivo, rat. How it is done:
This study was performed at CV Dynamics, Inc. (Newark, NJ, USA). Male SD rats were obtained from Charles River Laboratories, Inc. (Kingston, NY, USA). At 2 months of age, rats were pre-medicated with atropine (0.04 mg/kg IM) then anesthetized with a loading dose of pentobarbital sodium (65 mg/kg IP). A supplemental dose of pentobarbital sodium (16.3 mg/kg IP) was administered 30–40 min after the initial anesthesia. Marcaine (0.025–0.05 mg/rat IM) was administered locally for pain control, and anesthetized rats were subjected to a thoracotomy at the fourth intercostal space. The left descending coronary artery was occluded using a 5-0 silk snare for 30 min, followed by reperfusion for 24 h. The coronary occlusion and reperfusion were verified by visual inspection (color change of myocardium from pale to pink) and by EKG monitoring [ST elevation and widening of the QRS; Gould BioTACH ECG module (Valley View, OH, USA) with a Tektronix TDS 220 monitor (Beaverton, OR, USA)]. A 2% lidocaine solution (2–3 mg/kg) was dripped directly onto the heart as needed for arrhythmia control during ischemia, and procainamide (12.5 mg/kg IP) was administered 15 min prior to reperfusion.
Rats were orally gavaged with vehicle (0.5% HPMC, 5% DMSO, and 0.1% Tween 80; 10 mL/kg; n = 14), GSK2181236A (0.1 or 1.0 mg/kg; n = 11–14), or BAY 60-4552 (0.3 or 3.0 mg/kg; n = 10–12) 2 h prior to ischemia. Blood was collected at the initiation of ischemia and after 24 h reperfusion. Plasma was obtained for analysis of compound concentrations and levels of cardiac Troponin I (cTnI), a circulating biomarker of cardiac injury. Plasma concentrations of cTnI were determined using a commercially available ELISA (catalog #2010-2-HSP, Life Diagnostics, West Chester, PA, USA) according to the manufacturer’s instructions. Plasma compound concentrations were determined by LC/MS/MS (API 5000 triple quadrupole mass spectrometer, ABSciex, Foster City, CA, USA; Prominence liquid chromatographic system, Shimadzu, Columbia, MD, USA). Rats were anesthetized with a mixture of ketamine and xylazine (35 and 5 mg/kg, IM) and euthanized via exsanguination. Hearts were excised and perfused with 1% Evans blue dye in saline then perfused-fixed with 10% neutral buffered formalin (∼90 mmHg perfusion pressure). Hearts were sliced on the short axis from apex to base at 1–2 mm intervals, and the ischemic area (area at risk) was evaluated using Image Pro-Plus (Media Cybernetics, Inc., Bethesda, MD, USA). Fresh heart slices were stained with 1% triphenyltetrazolium and evaluated using Image Pro-Plus for determination of infarct size.

For data set [1], the system named is SHR-SP isolated aorta. The data set can be described thus: vasoactivity of SHR-SP isolated aorta (ND, HSFD and after chronic treatment). The arrangement: species or system rat. How it is done:
(§1) In separate studies, endothelial function was assessed following chronic (7 week) BAY 60-4552 or GSK2181236A treatment in SHR-SP on HSFD. SHR-SP fed either normal or HSFD served as controls. Rats were anesthetized and thoracic aorta were isolated and treated with KCl and phenylephrine as described above. Cumulative concentration-response curves to phenylephrine were obtained by adding 0.5 log unit increments (1 nM to 3 μM). Following several washes with KHB, each vessel was contracted to equilibrium with 0.3 μM phenylephrine and tone was reversed by adding cumulative amounts of carbachol at 0.5 log unit intervals (10 nM to 30 μM). Following several KHB washes, the tissues were again contracted to equilibrium with 0.3 μM phenylephrine and tone was reversed by adding cumulative amounts of SNP at 0.5 log unit intervals (0.1 nM to 3 μM). In separate tissues from both the normal and HSFD SHR-SP control groups, the direct vasodilatory effects of BAY 60-4552 and GSK2181236A were investigated. Contractile tone induced by 0.3 μM phenylephrine was reversed by adding cumulative concentrations of BAY 60-4552 or GSK2181236A to the tissue baths at log increments (0.1 nM to 10 μM).

For data set [2], the system named is SHR-SP isolated aorta. Description: direct vasodilatory effects in aorta isolated from ND and HSFD SHR-SP. The arrangement: species or system rat. As to conditions: for EC50: read-out: EC50, direct vasodilation. The method, then: as §1
[3] abbreviates: HSFD + 0.3 mg/kg chronic treatment.
The mark [4] stands for this setting: HSFD + 3 mg/kg chronic treatment.
[5] abbreviates: HSFD + 0.1 mg/kg chronic treatment.
The mark [6] stands for this setting: HSFD + 1 mg/kg chronic treatment.

Like-named read-outs stand apart in the source and are kept apart here.

`COC(=O)Nc1c(N)nc(-c2nn(Cc3ccccc3F)c3ncccc23)nc1N` [BAY 60-4552]: in the data set with Sprague Dawley rats (0.3 mg/kg p.o., arrhythmia and trauma during occlusion), the mortality rate is listed as 2 of 12. In addition, the mortality rate in the data set with Sprague Dawley rats (3 mg/kg p.o., cardiac puncture and trauma) is 2 of 14. Moreover, in the data set with Sprague Dawley rats, the “circulating levels of cardiac troponin I (cTnI)” value was “did not significantly alter” and the “infarct size as a percentage of the area at risk” value was “did not significantly alter”. In addition, in the data set with SHR-SP isolated aorta [1] (setting [3]), the “Carbachol Emax in aorta of chronically treated rats” value (from here on “Carbachol Emax in aorta”) is 54 ± 6 % reversal of PE tone, the “Phenylephrine Emax in aorta of chronically treated rats” value (“Phenylephrine Emax in aorta” below) is reported as 88 ± 6 % KCl and the “Sodium nitroprusside Emax in aorta of chronically treated rats” value (shortened to “Sodium nitroprusside Emax in aorta”) is 98 ± 5 % reversal of PE tone. In addition, in the data set on SHR-SP isolated aorta [1] (setting [4]), the “Carbachol Emax in aorta” value is given as 67 ± 6 % reversal of PE tone, the “Phenylephrine Emax in aorta” value worked out at 89 ± 7 % KCl and the “Sodium nitroprusside Emax in aorta” value is on record as 112 ± 3 % reversal of PE tone. In addition, in the data set on SHR-SP isolated aorta [2] (aorta from HSFD SHR-SP), the “Emax, direct vasodilation” value was 111 ± 2 % vasodilation and the EC50 was determined as 54 ± 14 nM. For the same molecule, in the data set on SHR-SP isolated aorta [2] (aorta from ND SHR-SP), the “Emax, direct vasodilation” value came to 110 ± 2 % vasodilation and the EC50 came to 75 ± 16 nM.
Regarding `Cc1cc(-c2ccc(OC(F)(F)F)cc2)ccc1COc1ccccc1-c1cccc(-n2ncc(C(=O)O)c2C(F)(F)F)n1` [GSK2181236A, 1-(6-{2-[({3-methyl-4′-[(trifluoromethyl)oxy]-4-biphenylyl}methyl)oxy]phenyl}-2-pyridinyl)-5-(trifluoromethyl)-1H-pyrazole-4-carboxylic acid], the mortality rate is recorded as 1 of 15 with Sprague Dawley rats (0.1 mg/kg p.o., due to anesthesia); 2 of 13 in the data set with Sprague Dawley rats (1 mg/kg p.o., arrhythmia during occlusion and unknown cause during reperfusion). In addition, the “circulating levels of cardiac troponin I (cTnI)” value with Sprague Dawley rats is on record as “did not significantly alter”. Further, in the data set with Sprague Dawley rats, the “infarct size as a percentage of the area at risk” value is on record as “did not significantly alter”. The “Carbachol Emax in aorta” value is 48 ± 14 % reversal of PE tone in the data set on SHR-SP isolated aorta [1] (setting [5]) and 59 ± 4 % reversal of PE tone in the data set on SHR-SP isolated aorta [1] (setting [6]). For the same molecule, the results for the “Phenylephrine Emax in aorta” value in the data set with SHR-SP isolated aorta [1] (setting [5]) and with SHR-SP isolated aorta [1] (setting [6]) were 93 ± 8 % KCl and 91 ± 8 % KCl, respectively. Besides, the “Sodium nitroprusside Emax in aorta” value in the data set with SHR-SP isolated aorta [1] (setting [5]) is listed as 111 ± 3 % reversal of PE tone; in the data set with SHR-SP isolated aorta [1] (setting [6]) it was 100 ± 2 % reversal of PE tone. The EC50 in the data set with SHR-SP isolated aorta [2] (Rattus norvegicus, aorta from HSFD SHR-SP) came out at 321 ± 168 nM; in the data set on SHR-SP isolated aorta [2] (Rattus norvegicus, aorta from ND SHR-SP), 270 ± 70 nM. In addition, the “Emax, direct vasodilation” value in the data set with SHR-SP isolated aorta [2] (aorta from HSFD SHR-SP) is reported as 110 ± 7 % vasodilation; in the data set with SHR-SP isolated aorta [2] (aorta from ND SHR-SP) it was 110 ± 3 % vasodilation.

For orientation: EC50 means the concentration at which the effect is half-maximal.

The values are drawn from article PMC3389674, “Comparison of Soluble Guanylate Cyclase Stimulators and Activators in Models of Cardiovascular Disease Associated with Oxidative Stress” (Frontiers in Pharmacology, 2012).
